Assay results reported in publication PMC6133161, “Thiazoles with cyclopropyl fragment as antifungal, anticonvulsant, and anti-Toxoplasma gondii agents: synthesis, toxicity evaluation, and molecular docking study” (Medicinal Chemistry Research, 2018).
In brackets after ≈: the same amount, converted by molar mass. Where two headings read alike, the source gives them in different places.

Assays:
[1] = tested on: Candida albicans ATCC 10231; assay: Broth microdilution MIC/MFC, reference strain; format: cell-based; settings: C. albicans ATCC 10231
Description: (§1) The examined compounds 3a–3j were screened in vitro for antibacterial and antifungal activities using the broth microdilution method according to European Committee on Antimicrobial Susceptibility Testing (EUCAST) (EUCAST [2003]) and Clinical and Laboratory Standards Institute guidelines (CLSI [2012]) against reference strains of microorganisms from American Type Culture Collection (ATCC), including fungi belonging to yeasts (Candida albicans ATCC 2091, Candida albicans ATCC 10231, Candida parapsilosis ATCC 22019 and Candida krusei ATCC 14243).
(§2) In the study of antifungal activity of the compounds 3a–3j, 15 clinical strains of different species of yeasts from Candida species, namely C. albicans, C. dubliniensis C. famata, C. inconspicua, C. krusei, C. tropicalis, C. glabrata, C. lambica, C. kefyr, C. lusitaniae, C. parapsilosis, C. guilliermondii, C. lusitaniae, C. pulcherrima and C. sake were also used. These fungi were isolated by the author (from Department of Pharmaceutical Microbiology of Medical University in Lublin, Poland) from different clinical materials, e.g., from upper respiratory tract of hospitalized patients including cancer patients (i.e., with non-small cell lung cancer or hematological malignancies). Some patients were after pre-operative or post-operative chemotherapy (treated with etoposide or cis-platin given in doses according to the standard procedures), patients with chronic hepatitis C (undergoing peginterferon and ribavirin therapy or without antiviral therapy), patients with diabetes, elderly people, aged of 65 years old or older, staying in close population, such as a care centre and people staying outside the home care. The Ethical Committee of the Medical University of Lublin approved the study protocol (No. KE-0254/75/2011). The isolates were identified by standard diagnostic methods—biochemical microtest, e.g., API 20C AUX, ID 32C, API Candida (bioMérieux) on the basis of assimilation of various substrates. All the used microbial cultures were first subcultured on nutrient agar or Sabouraud agar for bacteria and fungi, respectively. The RPMI 1640 with MOPS (for fungi) were inoculated with the suspensions of fungal species. Microbial suspensions were prepared in sterile saline (0.85% NaCl) with an optical density of 0.5 McFarland standard scale (Wiegand et al. [2008]). Samples containing examined compounds were dissolved in dimethyl sulfoxide (DMSO). Furthermore, fungal suspensions were put onto Petri dishes with solid media containing 2 mg/ml of the tested compounds followed incubation under appropriate conditions. The inhibition of microbial growth was judged by comparison with a control culture prepared without any sample tested. Nystatin (Sigma) was used as a reference antifungal compound. Subsequently MIC minimal inhibitory concentration (MIC) of the compounds was examined by the microdilution broth method, using their two-fold dilutions in RPMI 1640 broth with MOPS prepared in 96-well polystyrene plates. Final concentrations of the compounds ranged from 1000 to 0.0038 µg/ml. Microbial suspensions were prepared in sterile saline with an optical density of 0.5 McFarland standard. Next fungal suspension was added per each well containing broth and various concentrations of the examined compounds. After incubation, the MIC was assessed spectrophotometric as the lowest concentration of the samples showing complete fungal growth inhibition. Appropriate DMSO, growth and sterile controls were carried out. The medium with no tested substances was used as a control (Wiegand et al. [2008]). The minimal fungicidal concentration (MFC) are defined as the lowest concentration of the compounds that is required to kill a particular fungal species. MFC was determined by removing the culture using for MIC determinations from each well and spotting onto appropriate agar medium. The plates were incubated. The lowest compounds concentration with no visible growth observed was assessed as a fungicidal concentration. […]

[2] = tested on: Candida albicans ATCC 2091; assay: Broth microdilution MIC/MFC, reference strain; format: cell-based; settings: C. albicans ATCC 2091
Description: as §1, §2

[3] = tested on: Candida krusei ATCC 14243; assay: Broth microdilution MIC/MFC, reference strain; format: cell-based; settings: C. krusei ATCC 14243
Description: as §1, §2

[4] = tested on: Candida parapsilosis ATCC 22019; assay: Broth microdilution MIC/MFC, reference strain; format: cell-based; settings: C. parapsilosis ATCC 22019
Description: as §1, §2

[5] = tested on: maximal electroshock seizures; assay: Maximal electroshock seizure (MES) test; format: in vivo, mouse; settings: mice; for responders at 100 mg/kg: 100 mg/kg ip, read-out: X/Y number of mice protected (X) per number of mice tested (Y) (converted)
Method: For in vivo tests that assessed anticonvulsant properties of the test compounds 3a–3j adult male Albino Swiss (CD-1) mice weighing between 18 and 22 g were used. The animals were housed in groups of ten mice per cage at room temperature of 22 ± 2 °C, under light/dark (12:12) cycle. The animals had free access to food and tap water before the experiments. The ambient temperature of the experimental room and humidity (50 ± 10%) were kept consistent throughout all the tests. For behavioral experiments the animals were selected randomly. Each experimental group consisted of 4–8 animals/dose. The experiments were performed between 9 AM and 2 PM. Immediately after the in vivo assay the animals were euthanized by cervical dislocation. All procedures were approved by the Local Ethics Committee of the Jagiellonian University in Krakow (34/2018, 1.02.2018)) and the treatment of animals was in full accordance with ethical standards laid down in respective Polish and EU regulations (Directive No. 86/609/EEC). For in vivo tests the compounds 3a–3j were prepared in 1% Tween 80 solution (POCH, Poland) and they were administered by the intraperitoneal route. Control mice received 1% Tween 80. Pentylenetetrazole (PTZ), pilocarpine hydrochloride and scopolamine butylbromide were provided by Sigma Aldrich (Poland). For the tests they were prepared in 0.9% saline (Polfa Kutno, Poland). PTZ and pilocarpine were administered 60 min after the test compound or vehicle. To assess anticonvulsant properties of the test compounds anticonvulsant screening was conducted. Four assays were used: PTZ, maximal electroshock seizure (MES), 6-Hz and pilocarpine tests. In these assays the dose of 100 mg/kg was chosen as a starting dose. If it turned out to be effective, a lower dose (30 mg/kg) was also tested. MES test was performed according to a method previously described (Sałat et al. [2005]). In this test vehicle-treated mice and drug-treated mice received a stimulus of 25 mA delivered by an electroshock generator (Hugo Sachs rodent shocker, Germany) to induce maximal seizures (tonic extension) of hind limbs. Electroconvulsions were produced with the use of auricular electrodes and the stimulus duration was 0.2 s. Tonic extension of the hind limbs was regarded as the endpoint for this procedure.

L929 and VERO cell lines = assay: MTT cytotoxicity assay; format: cell-based, mouse; African green monkey; settings: 24 h, higher concentrations not reached due to limited solubility
[6] = Candida albicans, ATCC10231, read-out: MFC
[7] = Candida albicans, ATCC10231, read-out: MIC
[8] = Candida albicans, ATCC2091, read-out: MFC
[9] = Candida albicans, ATCC2091, read-out: MIC
[10] = Pichia kudriavzevii, ATCC14243, read-out: MFC
[11] = Pichia kudriavzevii, ATCC14243, read-out: MIC
[12] = Lodderomyces parapsilosis, ATCC22019, read-out: MFC
[13] = Lodderomyces parapsilosis, ATCC22019, read-out: MIC

Row | SMILES | MFC [1, 6] | MIC [1, 7] | MFC [2, 8] | MIC [2, 9] | MFC [3, 10] | MIC [3, 11] | MFC [4, 12] | MIC [4, 13] | responders at 100 mg/kg ([5]; Mus musculus, MES test) | highest possible non-cytotoxic concentration (L929 and VERO cell lines) | other results
1 | Fc1ccc(-c2csc(N/N=C/C3CC3)n2)cc1 [Compound 3a, (E)-2-(2-(Cyclopropylmethylene)hydrazinyl)-4-(4-fluorophenyl)thiazole] | 15.6 mg/L (≈ 59.8 µM) | 1.95 mg/L (≈ 7.46 µM) | 3.91 mg/L (≈ 15 µM) | 1.95 mg/L (≈ 7.46 µM) | 15.6 mg/L (≈ 59.8 µM) | 3.91 mg/L (≈ 15 µM) | 3.91 mg/L (≈ 15 µM) | 1.95 mg/L (≈ 7.46 µM) | 37.5% | 31.25 µg/mL | 
2 | Fc1ccc(-c2csc(N/N=C/C3CC3)n2)c(F)c1 [Compound 3g, (E)-2-(2-(Cyclopropylmethylene)hydrazinyl)-4-(2,4-difluorophenyl)thiazole] | 0.98 mg/L (≈ 3.51 µM) | 0.48 mg/L (≈ 1.72 µM) | 1.95 mg/L (≈ 6.98 µM) | 1.95 mg/L (≈ 6.98 µM) | 31.2 mg/L (≈ 112 µM) | 7.81 mg/L (≈ 28 µM) | 3.91 mg/L (≈ 14 µM) | 3.91 mg/L (≈ 14 µM) | 37.5% | 15.63 µg/mL | 
3 | N#Cc1ccc(-c2csc(N/N=C/C3CC3)n2)cc1 [Compound 3h, (E)-4-(2-(2-(Cyclopropylmethylene)hydrazinyl)thiazol-4-yl)benzonitrile] | 1.95 mg/L (≈ 7.27 µM) | 0.48 mg/L (≈ 1.79 µM) | 3.91 mg/L (≈ 14.6 µM) | 1.95 mg/L (≈ 7.27 µM) | 1.95 mg/L (≈ 7.27 µM) | 0.98 mg/L (≈ 3.65 µM) | 3.91 mg/L (≈ 14.6 µM) | 3.91 mg/L (≈ 14.6 µM) | 50% | 31.25 µg/mL | 
4 | FC(F)(F)c1ccc(-c2csc(N/N=C/C3CC3)n2)cc1 [Compound 3e, (E)-2-(2-(Cyclopropylmethylene)hydrazinyl)-4-(4-(trifluoromethyl)phenyl)thiazole] |  |  |  |  |  |  |  |  | 62.5% | 3.91 µg/mL | animals with reduced seizures ([5]; MES test, 100 mg/kg): 63%; responders at 30 mg/kg ([5]; Mus musculus, MES test, 30 mg/kg ip, read-out: X/Y number of mice protected (X) per number of mice tested (Y)): 0%; anticonvulsant activity in MES test ([5]; 30 mg/kg): not active
5 | O=[N+]([O-])c1ccc(-c2csc(N/N=C/C3CC3)n2)cc1 [Compound 3j, (E)-2-(2-(Cyclopropylmethylene)hydrazinyl)-4-(4-nitrophenyl)thiazole] | 1.95 mg/L (≈ 6.76 µM) | 0.48 mg/L (≈ 1.66 µM) | 7.81 mg/L (≈ 27.1 µM) | 3.91 mg/L (≈ 13.6 µM) | 3.91 mg/L (≈ 13.6 µM) | 0.98 mg/L (≈ 3.4 µM) | 31.2 mg/L (≈ 108 µM) | 3.91 mg/L (≈ 13.6 µM) | 50% | 31.25 µg/mL | 
6 | [N-]=[N+]=Nc1ccc(-c2csc(N/N=C/C3CC3)n2)cc1 [Compound 3i, (E)-4-(4-Azidophenyl)-2-(2-(cyclopropylmethylene)hydrazinyl)thiazole] | 1.95 mg/L (≈ 6.86 µM) | 0.24 mg/L (≈ 0.844 µM) | 3.91 mg/L (≈ 13.8 µM) | 0.98 mg/L (≈ 3.45 µM) | 1.95 mg/L (≈ 6.86 µM) | 0.48 mg/L (≈ 1.69 µM) | 7.81 mg/L (≈ 27.5 µM) | 0.98 mg/L (≈ 3.45 µM) | 37.5% | 15.63 µg/mL | 
7 | Cc1ccc(-c2csc(N/N=C/C3CC3)n2)cc1 [Compound 3d, (E)-2-(2-(Cyclopropylmethylene)hydrazinyl)-4-p-tolylthiazole] | 0.24 mg/L (≈ 0.933 µM) | 0.06 mg/L (≈ 0.233 µM) | 1.95 mg/L (≈ 7.58 µM) | 0.12 mg/L (≈ 0.466 µM) | 0.48 mg/L (≈ 1.87 µM) | 0.06 mg/L (≈ 0.233 µM) | 0.98 mg/L (≈ 3.81 µM) | 0.24 mg/L (≈ 0.933 µM) | 37.5% | 31.25 µg/mL | 
8 | C[C@@H]1[C@H](O)[C@@H](C)/C=C/C=C/CC/C=C/C=C/C=C/C=C/C(O[C@H]2O[C@H](C)[C@@H](O)[C@H](N)[C@@H]2O)CC2O[C@](O)(CC(O)C(O)CCC(O)CC(O)CC(O)CC(=O)O[C@H]1C)CC(O)C2C(=O)O (some centres unmarked) [Nystatin, reference compound] |  |  |  |  |  |  |  |  |  |  | MFC [1]: 0.48 mg/L (≈ 0.518 µM); MFC/MIC [1]: 1; MIC [1]: 0.48 mg/L (≈ 0.518 µM); MFC [2]: 0.24 mg/L (≈ 0.259 µM); MFC/MIC [2]: 1; MIC [2]: 0.24 mg/L (≈ 0.259 µM); MFC [3]: 0.24 mg/L (≈ 0.259 µM); MFC/MIC [3]: 1; MIC [3]: 0.24 mg/L (≈ 0.259 µM); MFC [4]: 0.48 mg/L (≈ 0.518 µM); MFC/MIC [4]: 2; MIC [4]: 0.24 mg/L (≈ 0.259 µM)
